{"source": "patent US20170368082A1", "about": "“FORMULATIONS OF BRINCIDOFOVIR” (priority 2016, published 2017)", "assay": "Blood and plasma pharmacokinetics of total radioactivity after IV or oral [^14C]brincidofovir", "assay_type": "in vivo, male Sprague Dawley and Long-Evans rats", "protocol": "The study utilized 4 groups of male SD rats (albino), and 3 groups of male LE rats (pigmented); a total of 39 rats. All animals were obtained from Hilltop Lab Animals, Inc. (Scottdale, Pa.). Rats weighed between 214 and 265 g at dosing. Rats in Groups 1, 2, 3, and 4 were administered a single 2-hour (h) IV infusion of [^14C]brincidofovir at a target dose of 15 mg/kg. Rats in Group 5 were administered a single 2-h IV infusion of [^14C]brincidofovir at a target dose of 2 mg/kg. Rats in Group 6, and 7 were administered a single oral gavage administration of [^14C]brincidofovir at a target dose of 15 mg/kg. Three dosing formulations (one for high dose IV, one for low dose IV, and one for PO dose) were prepared at QPS on the day of dosing. The IV formulation for Groups 1, 2, 3, and 4 contained a vehicle of 10 mM sodium phosphate buffer in 5% dextrose solution at pH 8.0(±0.1). The IV formulation for Group 5 contained a vehicle of 16 mM sodium phosphate buffer in 5% dextrose solution at pH 8.0(±0.1), and the PO dosing formulation contained a vehicle of 12.5 mM sodium phosphate buffer at pH 8.0(±0.1). The IV dose formulation for Group 5 and the PO dose formulation for Groups 6 and 7 contained higher concentration of buffer so that the final buffer concentration was approximately 10 mM in all dose formulations.\nBlood was collected from each animal in Group 2 (IV infusion) for plasma and blood analysis at the times listed below.\nTerminal blood samples were collected by cardiac puncture into pre-labeled blood collection tubes that contained K2EDTA as an anticoagulant. A terminal sample (N=1 per time point) was collected at 0.5, 1, 2, 4, 8, 24, and 72 h after initiation of infusion and the volume was not limited. Triplicate weighed aliquots of blood (0.100 g) were removed and analyzed for total radioactivity using combustion followed by LSC. Blood aliquots were maintained at approximately 4° C. until analysis. The remaining blood samples were maintained on wet ice (approximately 4° C.) and then centrifuged to obtain plasma within 1 h of the blood collection time. Centrifuge settings were recorded in the study notebook. Duplicate aliquots of plasma (0.050 mL) were analyzed for radioactivity using direct counting by LSC, and residual plasma was stored at approximately −70° C. and was saved for possible future analysis under a separate study protocol. Residual red blood cells and the animal carcasses of Group 2 rats were discarded as radioactive waste.\nEach rat was deeply anesthetized via isoflurane anesthesia, a blood sample was collected by cardiocentesis (approximately 2 mL) into tubes that contained K2EDTA as the anticoagulant, and the rat was euthanized by being frozen in a hexane/solid carbon dioxide bath for at least 15 min. The blood samples were maintained on wet ice (approximately 4° C.) and then centrifuged to obtain plasma within 1 h of the blood collection time. Centrifuge settings were recorded in the study notebook. Duplicate aliquots of plasma (0.050 mL) were analyzed for radioactivity using direct counting by LSC, and residual plasma was stored at approximately −70° C. and was saved for possible future analysis under a separate study protocol. Residual red blood cells were discarded as radioactive waste.\nTriplicate weighed aliquots (˜0.100 g) of blood aliquots (Group 2 only) were combusted in the Packard Sample Oxidizer, followed by LSC analysis.\nUrine (0.300 mL), and plasma (0.050 mL) specimens were thawed, if necessary, then aliquoted in duplicate by volume and analyzed by LSC. Volumes or weights of sample aliquots were documented in the study records. Ultima Gold scintillation fluid (5 mL, PerkinElmer) was added to each urine, and plasma aliquot, aliquot were mixed thoroughly, and then analyzed by LSC for radioactivity.", "key": {"[1]": {"settings": "0.5 h, SD rats Group 2, 15 mg/kg IV"}, "[2]": {"settings": "1 h, SD rats Group 2, 15 mg/kg IV"}, "[3]": {"settings": "2 h, SD rats Group 2, 15 mg/kg IV"}, "[4]": {"settings": "4 h, SD rats Group 2, 15 mg/kg IV"}, "[5]": {"settings": "8 h, SD rats Group 2, 15 mg/kg IV"}, "[6]": {"settings": "24 h, SD rats Group 2, 15 mg/kg IV"}, "[7]": {"settings": "72 h, SD rats Group 2, 15 mg/kg IV"}, "[8]": {"settings": "Blood, SD rats Group 2, 15 mg/kg IV"}, "[9]": {"settings": "Plasma, SD rats Group 2, 15 mg/kg IV"}, "[10]": {"settings": "SD rats Group 2, 15 mg/kg 2-h IV"}, "[11]": {"settings": "Plasma (LSC), PO 15 mg/kg, Group 7"}, "[12]": {"settings": "Plasma (by LSC), 15 mg/kg, Group 7 vs Group 4"}}}
{"smiles": "CCCCCCCCCCCCCCCCOCCCOP(=O)(O)CO[C@H](CO)Cn1ccc(N)nc1=O", "note": "[[^14C]brincidofovir]", "values": [{"measurement": "Plasma t1/2", "setting": "15 mg/kg PO", "value": "approximately 5 h"}, {"measurement": "Blood Concentration", "setting": "[1]", "value": 1.666, "unit": "μg equiv/mL"}, {"measurement": "Blood to Plasma Ratio", "setting": "[1]", "value": 0.65}, {"measurement": "Plasma Concentration", "setting": "[1]", "value": 2557, "unit": "ng/mL"}, {"measurement": "Blood Concentration", "setting": "[2]", "value": 3.017, "unit": "μg equiv/mL"}, {"measurement": "Blood to Plasma Ratio", "setting": "[2]", "value": 0.65}, {"measurement": "Plasma Concentration", "setting": "[2]", "value": 4609, "unit": "ng/mL"}, {"measurement": "Blood Concentration", "setting": "[3]", "value": 6.393, "unit": "μg equiv/mL"}, {"measurement": "Blood to Plasma Ratio", "setting": "[3]", "value": 0.62}, {"measurement": "Plasma Concentration", "setting": "[3]", "value": 10297, "unit": "ng/mL"}, {"measurement": "Blood Concentration", "setting": "[4]", "value": 3.845, "unit": "μg equiv/mL"}, {"measurement": "Blood to Plasma Ratio", "setting": "[4]", "value": 0.72}, {"measurement": "Plasma Concentration", "setting": "[4]", "value": 5363, "unit": "ng/mL"}, {"measurement": "Blood Concentration", "setting": "[5]", "value": 1.584, "unit": "μg equiv/mL"}, {"measurement": "Blood to Plasma Ratio", "setting": "[5]", "value": 0.81}, {"measurement": "Plasma Concentration", "setting": "[5]", "value": 1961, "unit": "ng/mL"}, {"measurement": "Blood Concentration", "setting": "[6]", "value": 0.294, "unit": "μg equiv/mL"}, {"measurement": "Blood to Plasma Ratio", "setting": "[6]", "value": 1.26}, {"measurement": "Plasma Concentration", "setting": "[6]", "value": 234, "unit": "ng/mL"}, {"measurement": "Blood Concentration", "setting": "[7]", "value": 0.057, "unit": "μg equiv/mL"}, {"measurement": "Blood to Plasma Ratio", "setting": "[7]", "value": 1.27}, {"measurement": "Plasma Concentration", "setting": "[7]", "value": 45, "unit": "ng/mL"}, {"measurement": "Blood to Plasma Ratio", "setting": "72 hours, 2 mg/kg IV", "value": 1.42}, {"measurement": "Blood to Plasma Ratio", "setting": "72 hours, 15 mg/kg IV", "value": 3.06}, {"measurement": "AUCall", "setting": "[8]", "value": 50.836, "unit": "μg equiv-h/mL"}, {"measurement": "AUCinf—obs", "setting": "[8]", "value": 52.028, "unit": "μg equiv-h/mL"}, {"measurement": "AUClast", "setting": "[8]", "value": 50.836, "unit": "μg equiv-h/mL"}, {"measurement": "Cmax", "setting": "[8]", "value": 6.393, "unit": "μg equiv/mL"}, {"measurement": "Tmax", "setting": "[8]", "value": 2, "unit": "h"}, {"measurement": "t1/2", "setting": "[8]", "value": 14.5, "unit": "h"}, {"measurement": "Blood to Plasma Ratio", "setting": "Group 2 SD rats, 24 h", "value": 1.26}, {"measurement": "Blood to Plasma Ratio", "setting": "Group 2 SD rats, 72 h", "value": 1.27}, {"measurement": "Blood:Plasma Ratio", "setting": "Group 3/SD, IV 15 mg/kg, 2 h", "value": 0.96}, {"measurement": "Blood:Plasma Ratio", "setting": "Group 3/SD, IV 15 mg/kg, 24 h", "value": 1.23}, {"measurement": "Blood:Plasma Ratio", "setting": "Group 4/LE, IV 15 mg/kg, 1 h", "value": 1.10}, {"measurement": "Blood:Plasma Ratio", "setting": "Group 4/LE, IV 15 mg/kg, 2 h", "value": 1.08}, {"measurement": "Blood:Plasma Ratio", "setting": "Group 4/LE, IV 15 mg/kg, 4 h", "value": 0.92}, {"measurement": "Blood:Plasma Ratio", "setting": "Group 4/LE, IV 15 mg/kg, 8 h", "value": 1.39}, {"measurement": "Blood:Plasma Ratio", "setting": "Group 4/LE, IV 15 mg/kg, 24 h", "value": 1.46}, {"measurement": "Blood:Plasma Ratio", "setting": "Group 4/LE, IV 15 mg/kg, 72 h", "value": 3.06}, {"measurement": "Blood:Plasma Ratio", "setting": "Group 5/LE, IV 2 mg/kg, 2 h", "value": 0.89}, {"measurement": "Blood:Plasma Ratio", "setting": "Group 5/LE, IV 2 mg/kg, 8 h", "value": 1.03}, {"measurement": "Blood:Plasma Ratio", "setting": "Group 5/LE, IV 2 mg/kg, 24 h", "value": 1.41}, {"measurement": "Blood:Plasma Ratio", "setting": "Group 5/LE, IV 2 mg/kg, 72 h", "value": 1.25}, {"measurement": "Blood:Plasma Ratio", "setting": "Group 6/SD, PO 15 mg/kg, 2 h", "value": 0.64}, {"measurement": "Blood:Plasma Ratio", "setting": "Group 6/SD, PO 15 mg/kg, 24 h", "value": 0.78}, {"measurement": "Blood:Plasma Ratio", "setting": "Group 7/LE, PO 15 mg/kg, 1 h", "value": 1.13}, {"measurement": "Blood:Plasma Ratio", "setting": "Group 7/LE, PO 15 mg/kg, 2 h", "value": 0.98}, {"measurement": "Blood:Plasma Ratio", "setting": "Group 7/LE, PO 15 mg/kg, 4 h", "value": 0.80}, {"measurement": "Blood:Plasma Ratio", "setting": "Group 7/LE, PO 15 mg/kg, 8 h", "value": 0.76}, {"measurement": "Blood:Plasma Ratio", "setting": "Group 7/LE, PO 15 mg/kg, 24 h", "value": 0.87}, {"measurement": "Blood to Plasma Ratio", "setting": "IV infusion, 1 to 24 hours after start", "value": "0.89-1.46"}, {"measurement": "Blood to plasma ratio, median", "setting": "IV or oral", "value": 1.00}, {"measurement": "Plasma AUClast", "setting": "LE rats, 15 mg/kg PO", "value": 21.0, "unit": "μg equiv·h/mL"}, {"measurement": "Plasma Cmax of total radioactivity", "setting": "LE rats, 15 mg/kg PO", "value": 1.5, "unit": "μg equiv/mL"}, {"measurement": "Plasma Tmax", "setting": "LE rats, 15 mg/kg PO", "value": 8, "unit": "h"}, {"measurement": "Plasma concentration at 24 h post-dose", "setting": "LE rats, 15 mg/kg PO", "value": 0.180, "unit": "μg equiv/mL"}, {"measurement": "Blood to Plasma Ratio", "setting": "PO, LE rats, 1 h to 24 h", "value": "0.76-1.13"}, {"measurement": "AUCall", "setting": "[9]", "value": 64.448, "unit": "μg equiv-h/mL"}, {"measurement": "AUCinf—obs", "setting": "[9]", "value": 65.292, "unit": "μg equiv-h/mL"}, {"measurement": "AUClast", "setting": "[9]", "value": 64.448, "unit": "μg equiv-h/mL"}, {"measurement": "Cmax", "setting": "[9]", "value": 10.297, "unit": "μg equiv/mL"}, {"measurement": "Tmax", "setting": "[9]", "value": 2, "unit": "h"}, {"measurement": "t1/2", "setting": "[9]", "value": 13.0, "unit": "h"}, {"measurement": "Plasma AUClast", "setting": "[10]", "value": 64.4, "unit": "μg equiv·h/mL"}, {"measurement": "Plasma Cmax of total radioactivity", "setting": "[10]", "value": 10.3, "unit": "μg equiv/mL"}, {"measurement": "Plasma Tmax", "setting": "[10]", "value": 2, "unit": "h"}, {"measurement": "Plasma concentration at 72 h post-dose", "setting": "[10]", "value": 0.045, "unit": "μg equiv/mL"}, {"measurement": "Plasma t1/2", "setting": "[10]", "value": 13.0, "unit": "h"}, {"measurement": "Oral bioavailability of radioactivity (AUCall PO/AUCall IV)", "setting": "blood", "value": 48, "unit": "%"}, {"measurement": "Radioactive bioavailability", "setting": "oral", "value": "approximately 50%"}, {"measurement": "Blood:Plasma Ratio", "setting": "oral administration, up to 24 h (Groups 6-7)", "value": "0.64-1.13"}, {"measurement": "Oral bioavailability of radioactivity (AUCall PO/AUCall IV)", "setting": "plasma", "value": 61, "unit": "%"}]}
{"smiles": "CCCCCCCCCCCCCCCCOCCCOP(=O)(O)CO[C@H](CO)Cn1ccc(N)nc1=O", "note": "[[^14C] brincidofovir]", "values": [{"measurement": "AUCall", "setting": "[11]", "value": 22.3885, "unit": "μg equiv · h/g"}, {"measurement": "AUCall Ratio (PO/IV)", "setting": "[12]", "value": 0.62}, {"measurement": "Cmax Ratio (PO/IV)", "setting": "[12]", "value": 0.30}, {"measurement": "AUCall", "setting": "Plasma (by LSC), 2 h IV infusion 15 mg/kg, Group 4", "value": 36.3690, "unit": "μg equiv · h/g"}, {"measurement": "Tissue Concentration (168 h)", "setting": "Plasma (by LSC), 2 h IV infusion 15 mg/kg, Group 4, LLOQ 0.036", "value": "BQL"}, {"measurement": "Tissue Concentration (168 h)", "setting": "Plasma (by LSC), PO 15 mg/kg, Group 7, LLOQ 0.034", "value": "BQL"}]}
{"smiles": "CCCCCCCCCCCCCCCCOCCCOP(=O)(O)CO[C@H](CO)Cn1ccc(N)nc1=O", "note": "[[14C]brincidofovir]", "values": [{"measurement": "AUCall", "setting": "[11]", "value": 22.3885, "unit": "μg equiv · h/g"}, {"measurement": "Tmax", "setting": "[11]", "value": 8, "unit": "h"}]}
